Source: patent US8039634B2, “Oxazole hydroxamic acid derivatives and use thereof” (SK Holdings Co., Ltd., priority 2005, dated 2011)
In brackets after ≈: the same amount, converted by molar mass.

Columns and labels:
[1] = system: HDAC; experiment: Inhibition of HDAC activity (fluorometric, HeLa nuclear extract); assay type: biochemical, human; conditions: 30 min room temperature
Procedure: In order to determine inhibitory activity of a compound in accordance with the present invention on HDAC, evaluation was carried out using an aminocoumarin derivative of ω-acetylated lysine as a substrate for an enzyme. As an enzyme source, a nuclear extract obtained from human cervical cancer cell line HeLa cells was used. The above evaluation was carried out with modification of a method based on the details described in Weegener et al. (2003) Analytical Biochemistry, 321, 203-208. That is, […], […] of nuclear extract and a compound of Example 1 at different concentrations were added and maintained at room temperature for 30 min. Trypsin (10 mg/ml) and Trichostatin A (final concentration: […]) were added to the resulting mixture which was reacted at the same temperature for 20 min, thereby terminating the reaction. The enzyme activity-inhibitory concentration of the compound added was determined using a fluorometer. As a control compound, suberoylanilide hydroxamic acid (SAHA) was used. IC50 in Table 1 below refers to a concentration of the compound that leads to a 50% decrease in activity of HDAC.

[2] = system: HeLa; experiment: In vitro toxicity / growth inhibition (CellTiter-Glo), HeLa; assay type: cell-based; conditions: Homo sapiens, 48 hr
Procedure: (§1) In order to determine in vitro toxicity of a compound in accordance with the present invention, 18 species of human cancer cell lines (HeLa, cervical cancer cell line; HCT116, SW480, SW620, RKO, colon cancer cell lines; H460, H1299, A549, lung cancer cell lines; MCF7, MDA-MB231, MDA-MB453, breast cancer cell lines; Jurkat, K562, THP1, Ramos, U937, blood cancer cell lines; PC3, DU145, prostate cancer cell lines) were used. Cell lines were cultured in RPMI 1640 culture medium containing penicillin/streptomycin (100 units/mL) and heat-inactivated 5% fetal bovine serum (FBS) under standard culture conditions ([…], 5% CO2, and 100% relative humidity). Thereafter, single cell suspension was obtained via trypsin treatment and pipetting. The suspension was diluted with the same medium such that a cell density is in a range of 8×10^3 to 1.5×10^4 cells/well, and was transferred to a 96-well microtiter plate. After culturing for 24 hours, cell cultures were treated with respective compounds of Examples at various concentrations. […] The above evaluation was carried out according to the methods given in a manufacture's manual. GI50 in Table 1 below refers to a concentration that compounds of Examples cause 50% growth inhibition of various cancer cells.

[3] = system: MCF7; experiment: In vitro toxicity / growth inhibition (CellTiter-Glo), MCF7; assay type: cell-based; conditions: Homo sapiens; MCF7, 48 hr
Procedure: as §1

[4] = Solubility; assay type: physicochemical
[5] = system: HCT116; experiment: In vitro toxicity / growth inhibition (CellTiter-Glo), HCT116; assay type: cell-based; conditions: Homo sapiens, HCT-116; HCT116, 48 hr
Procedure: as §1

[6] = system: Raw cell; experiment: Inhibition of LPS-induced NO increases; assay type: cell-based, Mouse; conditions: 5 μM compound; for NO: LPS, 18 hours, Griess Reagent; for activity at 5 µM: Mus musculus, 18 h, relative to LPS alone control
Procedure: As one of the methods to confirm anti-inflammatory responses, inhibition of increases in nitric oxide (NO) due to lipopolysaccharide (LPS) was carried out. Mouse cell line (Raw cell) was cultured in RPMI 1640 culture medium containing penicillin/streptomycin (100 units/mL) and heat-inactivated 5% fetal bovine serum (FBS) under standard culture conditions ([…], 5% CO2, 37° C., and 100% relative humidity). Test compounds were dissolved in dimethylsulfoxide (DMSO) and were used as a final concentration of 1 to 40 μM. Cells were proliferated to a cell density of 5×10^3 to 2×10^4 cells on a 24-well plate and were treated with the respective compounds (equal amounts of 5 μM) 1 hour prior to treatment with LPS ([…]). The thus-treated cells were cultured for 18 hours, and thereafter the amounts of NO thus produced were measured using Griess Reagent. Measurement was confirmed using an absorption spectrophotometer at 540 nm. The value was expressed as percentage (%) relative to a control in which LPS alone was treated.

[7] = system: H460; experiment: In vitro toxicity / growth inhibition (CellTiter-Glo), H460; assay type: cell-based; conditions: Homo sapiens, NCI-H460; H460, 48 hr
Procedure: as §1

| IC50 [1] | solubility [4] | SMILES | GI50 [2] | GI50 [3] | GI50 [5] | NO [6] | activity at 5 µM [6] | GI50 [7] |
| --- | --- | --- | --- | --- | --- | --- | --- | --- |
| 0.002 µM | 200 µg/mL (≈ 549 µM) | O=C(CCCCCCc1nc(-c2ccccc2)c(-c2ccccc2)o1)NO [Example 4, 7-(4,5-diphenyl-oxazol-2-yl)-heptanoic acid hydroxyamide] | 2.5 µM | 6.6 µM | 3.5 µM |  |  |  |
| 0.0195 µM | 900 µg/mL (≈ 2460 µM) | O=C(CCCCCCc1nc(-c2ccccc2)c(-c2ccncc2)o1)NO [Example 17, 7-(4-phenyl-5-pyridin-4-yl-oxazol-2-yl)-heptanoic acid hydroxyamide] | 3.5 µM | 1.8 µM | 5.4 µM | 59.6 μM/L | 46.1% | 7.3 µM |
| 0.002 µM | 200 µg/mL (≈ 528 µM) | Cc1ccc(-c2oc(CCCCCCC(=O)NO)nc2-c2ccccc2)cc1 [Example 7, 7-(4-phenyl-5-p-tolyl-oxazol-2-yl)-heptanoic acid hydroxyamide] | 2.4 µM |  | 2.7 µM |  |  | 9.9 µM |
| 0.0323 µM | 1400 µg/mL (≈ 3650 µM) | O=C(CCCCCCc1nc(-c2cccc(F)c2)c(-c2cccnc2)o1)NO [Example 16, 7-[4-(3-fluoro-phenyl)-5-pyridin-3-yl-oxazol-2-yl]-heptanoic acid hydroxyamide] | 20.7 µM |  |  | 63.0 μM/L | 55.7% | 52.3 µM |
| 0.00148 µM | 400 µg/mL (≈ 1050 µM) | O=C(CCCCCCc1nc(-c2ccccc2)c(-c2cccc(F)c2)o1)NO [Example 6, 7-[5-(3-fluoro-phenyl)-4-phenyl-oxazol-2-yl]-heptanoic acid hydroxyamide] | 10.7 µM | 3.8 µM | 9.5 µM | 70.6 μM/L | 77.1% | 15.8 µM |
| 0.0012 µM | 200 µg/mL (≈ 490 µM) | CCOc1ccc(-c2oc(CCCCCCC(=O)NO)nc2-c2ccccc2)cc1 [Example 8, 7-[5-(4-ethoxy-phenyl)-4-phenyl-oxazol-2-yl]-heptanoic acid hydroxyamide] | 1.5 µM |  | 1.2 µM | 63.7 μM/L | 57.7% | 4.2 µM |
| 0.00501 µM | 700 µg/mL (≈ 1720 µM) | CN(C)c1ccc(-c2oc(CCCCCCC(=O)NO)nc2-c2ccccc2)cc1 [Example 12, 7-[5-(4-dimethylamino-phenyl)-4-phenyl-oxazol-2-yl]-heptanoic acid hydroxyamide] | 14.1 µM | 6.9 µM | 9.8 µM | 72.9 μM/L | 83.7% | 19.5 µM |
| 0.00047 µM | 200 µg/mL (≈ 471 µM) | COc1ccc(-c2nc(CCCCCCC(=O)NO)oc2-c2ccc(OC)cc2)cc1 [Example 10, 7-[4,5-bis-(4-methoxy-phenyl)-oxazol-2-yl]-heptanoic acid hydroxyamide] | 3 µM | 0.8 µM | 2.4 µM |  |  | 9.2 µM |
| 0.00724 µM | 400 µg/mL (≈ 942 µM) | COc1ccc(-c2oc(CCCCCCC(=O)NO)nc2-c2ccccc2OC)cc1 [Example 11, 7-[4-(2-methoxy-phenyl)-5-(4-methoxy-phenyl)-oxazol-2-yl]-heptanoic acid hydroxyamide] | 1.2 µM |  | 2.4 µM | 65.0 μM/L | 61.3% | 10.2 µM |
| 0.00158 µM | 200 µg/mL (≈ 507 µM) | COc1cccc(-c2oc(CCCCCCC(=O)NO)nc2-c2ccccc2)c1 [Example 3, 7-[5-(3-methoxy-phenyl)-4-phenyl-oxazol-2-yl]-heptanoic acid hydroxyamide] | 16.9 µM |  | 6.5 µM |  |  |  |
| 0.0017 µM | 300 µg/mL (≈ 789 µM) | O=C(CCCCCCc1nc(-c2ccccc2)c(-c2ccc(O)cc2)o1)NO [Example 20, 7-[5-(4-hydroxy-phenyl)-4-phenyl-oxazol-2-yl]-heptanoic acid hydroxyamide] | 2.4 µM |  | 1.5 µM | 55.9 μM/L | 35.9% | 5.4 µM |

The remaining lines, values behind:

| SMILES | IC50 [1] | solubility [4] | GI50 [2] | GI50 [3] | GI50 [5] | NO [6] | activity at 5 µM [6] | GI50 [7] |
| --- | --- | --- | --- | --- | --- | --- | --- | --- |
| CN(C)c1ccc(-c2nc(CCCCCCC(=O)NO)oc2-c2cccnc2)cc1 [Example 14, 7-[4-(4-dimethylamino-phenyl)-5-pyridin-3-yl-oxazol-2-yl]-heptanoic acid hydroxyamide] | 0.00295 µM | 1000 µg/mL (≈ 2450 µM) | 7.8 µM | 8.7 µM | 8.7 µM | 69.6 μM/L | 74.4% | 23.5 µM |
| COc1ccccc1-c1oc(CCCCCCC(=O)NO)nc1-c1ccccc1 [Example 2, 7-[5-(2-methoxy-phenyl)-4-phenyl-oxazol-2-yl]-heptanoic acid hydroxyamide] | 0.00661 µM | 400 µg/mL (≈ 1010 µM) | 9.33 µM |  | 8.3 µM | 77.9 μM/L | 97.8% |  |
| CCOc1ccc(-c2oc(CCCCCCC(=O)NO)nc2-c2ccncc2)cc1 [Example 19, 7-[5-(4-ethoxy-phenyl)-4-pyridin-4-yl-oxazol-2-yl]-heptanoic acid hydroxyamide] | 0.00068 µM | 700 µg/mL (≈ 1710 µM) | 2.9 µM | 1.1 µM | 4 µM |  |  | 4.1 µM |
| O=C(CCCCCCc1nc(-c2ccc(F)cc2)c(-c2cccnc2)o1)NO [Example 15, 7-[4-(4-fluoro-phenyl)-5-pyridin-3-yl-oxazol-2-yl]-heptanoic acid hydroxyamide] | 0.0384 µM | 2000 µg/mL (≈ 5220 µM) | 30.1 µM |  |  | 66.6 μM/L | 65.8% | 69 µM |
| COc1ccc(-c2oc(CCCCCCC(=O)NO)nc2-c2ccncc2)cc1 [Example 18, 7-[5-(4-methoxy-phenyl)-4-pyridin-4-yl-oxazol-2-yl)-heptanoic acid hydroxyamide] | 0.014 µM | 900 µg/mL (≈ 2280 µM) | 9.1 µM |  | 3.8 µM | 68.6 μM/L | 71.6% | 11.7 µM |
| O=C(CCCCCCc1nc(-c2ccccc2)c(-c2ccccc2F)o1)NO [Example 5, 7-[5-(2-fluoro-phenyl)-4-phenyl-oxazol-2-yl]-heptanoic acid hydroxyamide] | 0.00174 µM | 300 µg/mL (≈ 784 µM) | 3.6 µM |  | 10.7 µM | 69.0 μM/L | 72.7% | 14.2 µM |
| COc1ccc(-c2nc(CCCCCCC(=O)NO)oc2-c2cccnc2)cc1 [Example 13, 7-[4-(4-methoxy-phenyl)-5-pyridin-3-yl-oxazol-2-yl]-heptanoic acid hydroxyamide] | 0.0145 µM | 900 µg/mL (≈ 2280 µM) | 3.9 µM | 1 µM | 3.9 µM | 57.1 μM/L | 39.2% | 4.4 µM |
| O=C(CCCCCCc1nc(-c2ccccc2)c(-c2ccc(F)cc2)o1)NO [Example 9, 7-[5-(4-fluoro-phenyl)-4-phenyl-oxazol-2-yl]-heptanoic acid hydroxyamide] | 0.00497 µM |  | 14.2 µM |  | 5.9 µM | 71.4 μM/L | 79.4% | 19.1 µM |
